From PubChem BioAssay AID256 (DTP/NCI, 2004)
Values joined by “and” are separate entries in the source; they are usually repeats but may differ in a detail not shown here. Equal entries are not always repeated. Inconclusive results and toxic doses are left out.

System: CD2F1 mice, L1210 leukemia ip, survival T/C
Test: NCI In Vivo Anticancer Drug Screen. Data for tumor model L1210 Leukemia (intraperitoneal) in CD2F1 (CDF1) mice
Details: endpoint: mean survival time, higher = longer survival
In short: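 Implant tumor; dose compound or vehicle; measure endpoint in both groups; report treated divided by control.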

With `Nc1nc(=O)n(C2OC(CO)C(O)C2O)cc1F` (configuration not stated) the T/C (dose: 0.25 mg/kg/injection, schedule: Q01DX009 (ip), vehicle: saline) was 121 % of control, the T/C (dose: 0.5 mg/kg/injection, schedule: Q01DX009 (sc), vehicle: saline) was 97 % of control and the T/C (dose: 1.0 mg/kg/injection, schedule: Q03HX024 (ip), vehicle: saline) was 346 % of control. For the same compound, the T/C (dose: 2.0 mg/kg/injection, schedule: Q01DX009 (sc), vehicle: saline) was 121 % of control, the T/C (dose: 4.0 mg/kg/injection, schedule: Q01DX009 (ip), vehicle: saline) was 157 % of control and the T/C (dose: 4.0 mg/kg/injection, schedule: Q08DX002 (ip), vehicle: saline) was 106 % of control. For the same compound, the T/C (dose: 8.0 mg/kg/injection, schedule: Q01DX009 (sc), vehicle: saline) was 152 % of control, the T/C (dose: 8.0 mg/kg/injection, schedule: Q03HX024 (ip), vehicle: saline) was 540 % of control and the T/C (dose: 12.5 mg/kg/injection, schedule: Q01DX009 (ip), vehicle: saline) was 218 % of control and 227 % of control. For the same compound, the T/C (dose: 16.0 mg/kg/injection, schedule: Q01DX009 (ip), vehicle: saline) was 186 % of control and 194 % of control, the T/C (dose: 16.0 mg/kg/injection, schedule: Q03HX016 (ip), vehicle: saline) was 248 % of control and the T/C (dose: 16.0 mg/kg/injection, schedule: Q03HX024 (oral), vehicle: saline) was 327 % of control. The T/C (dose: 16.0 mg/kg/injection, schedule: Q08DX002 (ip), vehicle: saline) was 114 % of control, the T/C (dose: 18.8 mg/kg/injection, schedule: Q01DX008 (ip), vehicle: saline) was 189 % of control and the T/C (dose: 18.8 mg/kg/injection, schedule: Q01DX008 (oral), vehicle: saline) was 167 % of control. The T/C (dose: 20.0 mg/kg/injection, schedule: Q01DX007 (ip), vehicle: saline) was 195 % of control, the T/C (dose: 20.0 mg/kg/injection, schedule: Q01DX009 (ip), vehicle: saline) was 187 % of control and the T/C (dose: 20.0 mg/kg/injection, schedule: Q04DX003 (ip), vehicle: saline) was 152 % of control. The T/C (dose: 25.0 mg/kg/injection, schedule: Q01DX009 (ip), vehicle: saline) was 215 % of control and 233 % of control, the T/C (dose: 32.0 mg/kg/injection, schedule: Q01DX009 (ip), vehicle: saline) was 244 % of control and the T/C (dose: 32.0 mg/kg/injection, schedule: Q01DX009 (oral), vehicle: saline) was 163 % of control. The T/C (dose: 32.0 mg/kg/injection, schedule: Q01DX009 (sc), vehicle: saline) was 196 % of control, the T/C (dose: 32.0 mg/kg/injection, schedule: Q03HX008 (ip), vehicle: saline) was 120 % of control and the T/C (dose: 37.5 mg/kg/injection, schedule: Q01DX008 (ip), vehicle: saline) was 169 % of control. For the same compound, the T/C (dose: 37.5 mg/kg/injection, schedule: Q01DX008 (oral), vehicle: saline) was 175 % of control, the T/C (dose: 40.0 mg/kg/injection, schedule: Q01DX007 (ip), vehicle: saline) was 204 % of control and the T/C (dose: 40.0 mg/kg/injection, schedule: Q01DX009 (ip), vehicle: saline) was 229 % of control. For the same compound, the T/C (dose: 40.0 mg/kg/injection, schedule: Q04DX003 (ip), vehicle: saline) was 152 % of control, the T/C (dose: 50.0 mg/kg/injection, schedule: Q01DX009 (ip), vehicle: saline) was 153 % of control and 166 % of control and the T/C (dose: 64.0 mg/kg/injection, schedule: Q01DX009 (ip), vehicle: saline) was 221 % of control. The T/C (dose: 64.0 mg/kg/injection, schedule: Q01DX009 (oral), vehicle: saline) was 176 % of control, the T/C (dose: 64.0 mg/kg/injection, schedule: Q03HX016 (ip), vehicle: saline) was 377 % of control and the T/C (dose: 64.0 mg/kg/injection, schedule: Q03HX024 (oral), vehicle: saline) was 90 % of control. The T/C (dose: 64.0 mg/kg/injection, schedule: Q08DX002 (ip), vehicle: saline) was 116 % of control, the T/C (dose: 75.0 mg/kg/injection, schedule: Q01DX008 (oral), vehicle: saline) was 202 % of control and the T/C (dose: 75.0 mg/kg/injection, schedule: Q04DX003 (ip), vehicle: saline) was 182 % of control. For the same compound, the T/C (dose: 80.0 mg/kg/injection, schedule: Q01DX007 (ip), vehicle: saline) was 161 % of control, the T/C (dose: 80.0 mg/kg/injection, schedule: Q01DX009 (ip), vehicle: saline) was 117 % of control and the T/C (dose: 80.0 mg/kg/injection, schedule: Q04DX003 (ip), vehicle: saline) was 157 % of control. The T/C (dose: 100.0 mg/kg/injection, schedule: Q01DX009 (ip), vehicle: saline) was 113 % of control and 115 % of control, the T/C (dose: 128.0 mg/kg/injection, schedule: Q01DX001 (ip), vehicle: saline) was 120 % of control and the T/C (dose: 128.0 mg/kg/injection, schedule: Q01DX001 (sc), vehicle: saline) was 123 % of control. For the same compound, the T/C (dose: 128.0 mg/kg/injection, schedule: Q01DX009 (ip), vehicle: saline) was 114 % of control, the T/C (dose: 128.0 mg/kg/injection, schedule: Q01DX009 (sc), vehicle: saline) was 88 % of control and the T/C (dose: 128.0 mg/kg/injection, schedule: Q04DX003 (ip), vehicle: saline) was 163 % of control. For the same compound, the T/C (dose: 128.0 mg/kg/injection, schedule: Q04DX003 (oral), vehicle: saline) was 158 % of control, the T/C (dose: 150.0 mg/kg/injection, schedule: Q01DX001 (ip), vehicle: saline) was 110 % of control and the T/C (dose: 150.0 mg/kg/injection, schedule: Q01DX001 (oral), vehicle: saline) was 115 % of control. The T/C (dose: 150.0 mg/kg/injection, schedule: Q04DX003 (ip), vehicle: saline) was 151 % of control, the T/C (dose: 200.0 mg/kg/injection, schedule: Q01DX009 (ip), vehicle: saline) was 101 % of control and the T/C (dose: 256.0 mg/kg/injection, schedule: Q01DX009 (oral), vehicle: saline) was 109 % of control. The T/C (dose: 256.0 mg/kg/injection, schedule: Q04DX003 (oral), vehicle: saline) was 171 % of control, the T/C (dose: 300.0 mg/kg/injection, schedule: Q01DX001 (oral), vehicle: saline) was 115 % of control and the T/C (dose: 300.0 mg/kg/injection, schedule: Q04DX003 (ip), vehicle: saline) was 239 % of control. The T/C (dose: 512.0 mg/kg/injection, schedule: Q01DX001 (sc), vehicle: saline) was 153 % of control, the T/C (dose: 512.0 mg/kg/injection, schedule: Q04DX003 (oral), vehicle: saline) was 206 % of control and the T/C (dose: 600.0 mg/kg/injection, schedule: Q01DX001 (ip), vehicle: saline) was 172 % of control. For the same compound, the T/C (dose: 600.0 mg/kg/injection, schedule: Q04DX003 (ip), vehicle: saline) was 259 % of control, the T/C (dose: 1024.0 mg/kg/injection, schedule: Q01DX001 (ip), vehicle: saline) was 161 % of control and the T/C (dose: 1024.0 mg/kg/injection, schedule: Q01DX001 (sc), vehicle: saline) was 239 % of control. The T/C (dose: 1024.0 mg/kg/injection, schedule: Q04DX003 (ip), vehicle: saline) was 286 % of control, the T/C (dose: 1024.0 mg/kg/injection, schedule: Q04DX003 (oral), vehicle: saline) was 122 % of control and the T/C (dose: 1024.0 mg/kg/injection, schedule: Q08DX002 (ip), vehicle: saline) was 250 % of control. For the same compound, the T/C (dose: 1200.0 mg/kg/injection, schedule: Q01DX001 (ip), vehicle: saline) was 183 % of control.
With `Clc1ccc2c(c1)Cc1cc(N(CCBr)CCBr)ccc1-2` the T/C (dose: 100.0 mg/kg/injection, schedule: Q01DX009 (ip), vehicle: saline with Tween-80) was 104 % of control, the T/C (dose: 200.0 mg/kg/injection, schedule: Q01DX009 (ip), vehicle: saline with Tween-80) was 106 % of control and the T/C (dose: 400.0 mg/kg/injection, schedule: Q01DX009 (ip), vehicle: saline with Tween-80) was 110 % of control.
In the case of `CC(=O)CCS(=O)(=O)O`, the T/C (dose: 100.0 mg/kg/injection, schedule: Q01DX001 (ip), vehicle: saline with Tween-80) is reported as 92 % of control, the T/C (dose: 200.0 mg/kg/injection, schedule: Q01DX001 (ip), vehicle: saline with Tween-80) is reported as 95 % of control and the T/C (dose: 400.0 mg/kg/injection, schedule: Q01DX001 (ip), vehicle: saline with Tween-80) is reported as 88 % of control.
`N#CC(c1ccc([N+](=O)[O-])cc1)C(CC(=O)c1ccccc1)c1ccccc1` (configuration not stated) was tested, and the T/C (dose: 50.0 mg/kg/injection, schedule: Q01DX009 (ip), vehicle: Klucel (hydroxypropylcellulose) (HPC)) was 96 % of control, the T/C (dose: 100.0 mg/kg/injection, schedule: Q01DX009 (ip), vehicle: Klucel (hydroxypropylcellulose) (HPC)) was 101 % of control and the T/C (dose: 200.0 mg/kg/injection, schedule: Q01DX009 (ip), vehicle: Klucel (hydroxypropylcellulose) (HPC)) was 93 % of control.
For `CC(=O)NNC(=O)CC(O)(c1ccccc1)c1ccccc1`, the T/C (dose: 100.0 mg/kg/injection, schedule: Q04DX002 (ip), vehicle: saline with Tween-80) was 113 % of control and the T/C (dose: 200.0 mg/kg/injection, schedule: Q04DX002 (ip), vehicle: saline with Tween-80) was 95 % of control.
For `Nc1cc2[nH]c(=O)c3ccccc3c2cc1Br`, the T/C (dose: 100.0 mg/kg/injection, schedule: Q01DX001 (ip), vehicle: carboxymethylcellulose (CMC)) was 103 % of control, the T/C (dose: 200.0 mg/kg/injection, schedule: Q01DX001 (ip), vehicle: carboxymethylcellulose (CMC)) was 97 % of control and the T/C (dose: 400.0 mg/kg/injection, schedule: Q01DX001 (ip), vehicle: carboxymethylcellulose (CMC)) was 100 % of control.
For `O=C1CCC(=O)N1CCC1=NCCc2ccccc21`, the T/C (dose: 100.0 mg/kg/injection, schedule: Q04DX003 (ip), vehicle: saline with Tween-80) was 100 % of control, the T/C (dose: 200.0 mg/kg/injection, schedule: Q04DX003 (ip), vehicle: saline with Tween-80) was 96 % of control and the T/C (dose: 400.0 mg/kg/injection, schedule: Q04DX003 (ip), vehicle: saline with Tween-80) was 100 % of control.
In the case of `CN(CCCCl)CCCCl`, the T/C (dose: 75.0 mg/kg/injection, schedule: Q01DX001 (ip), vehicle: saline) is reported as 103 % of control.
